# Test results taken from ChEMBL document CHEMBL4831516, “Development of Membrane-Active Honokiol/Magnolol Amphiphiles as Potent Antibacterial Agents against Methicillin-Resistant Staphylococcus aureus (MRSA)” (J Med Chem, 2021).
# What was measured:
# [1] = test system: Staphylococcus aureus; assay: Antibacterial activity against methicillin-resistant Staphylococcus aureus clinical isolate M-15 assessed as inhibition of visible growth incubated for 16 to 18 hrs by CLSI method; assay type: functional; conditions: time 16-18 hrs, read-out: MIC100
# [2] = test system: Staphylococcus aureus; assay: Antibacterial activity against methicillin-resistant Staphylococcus aureus clinical isolate M-18 assessed as inhibition of visible growth incubated for 16 to 18 hrs by CLSI method; assay type: functional; conditions: time 16-18 hrs, read-out: MIC100
# [3] = test system: Escherichia coli; assay: Antibacterial activity against Escherichia coli ATCC25922 assessed as inhibition of visible growth incubated for 16 to 18 hrs by CLSI method; assay type: functional; conditions: time 16-18 hrs, read-out: MIC100
# [4] = test system: Stenotrophomonas maltophilia; assay: Antibacterial activity against Stenotrophomonas maltophilia assessed as inhibition of visible growth incubated for 16 to 18 hrs by CLSI method; assay type: functional; conditions: time 16-18 hrs, read-out: MIC100
# [5] = test system: Bacillus subtilis; assay: Antibacterial activity against Bacillus subtilis assessed as inhibition of visible growth incubated for 16 to 18 hrs by CLSI method; assay type: functional; conditions: time 16-18 hrs, read-out: MIC100
# [6] = Selectivity index, HC50 for hemolytic activity in sheep RBC to MIC for antibacterial activity against Staphylococcus aureus ATCC29213; assay type: toxicity; conditions: sheep red blood cells (erythrocytes), read-out: Selectivity Index
# [7] = test system: Micrococcus luteus; assay: Antibacterial activity against Micrococcus luteus assessed as inhibition of visible growth incubated for 16 to 18 hrs by CLSI method; assay type: functional; conditions: time 16-18 hrs, read-out: MIC100
# [8] = test system: Staphylococcus aureus; assay: Antibacterial activity against Staphylococcus aureus ATCC29213 assessed as inhibition of visible growth incubated for 16 to 18 hrs by CLSI method; assay type: functional; conditions: time 16-18 hrs, read-out: MIC100
# [9] = test system: Staphylococcus aureus; assay: Antibacterial activity against methicillin-resistant Staphylococcus aureus clinical isolate M-12 assessed as inhibition of visible growth incubated for 16 to 18 hrs by CLSI method; assay type: functional; conditions: time 16-18 hrs, read-out: MIC100
# [10] = test system: Staphylococcus aureus; assay: Antibacterial activity against methicillin-resistant Staphylococcus aureus clinical isolate M-16 assessed as inhibition of visible growth incubated for 16 to 18 hrs by CLSI method; assay type: functional; conditions: time 16-18 hrs, read-out: MIC100
# [11] = test system: Staphylococcus aureus; assay: Antibacterial activity against methicillin-resistant Staphylococcus aureus clinical isolate M-19 assessed as inhibition of visible growth incubated for 16 to 18 hrs by CLSI method; assay type: functional; conditions: time 16-18 hrs, read-out: MIC100
# [12] = test system: Staphylococcus aureus; assay: Antibacterial activity against methicillin-resistant Staphylococcus aureus clinical isolate M-13 assessed as inhibition of visible growth incubated for 16 to 18 hrs by CLSI method; assay type: functional; conditions: time 16-18 hrs, read-out: MIC100
# [13] = test system: Staphylococcus aureus; assay: Antibacterial activity against methicillin-resistant Staphylococcus aureus clinical isolate M-20 assessed as inhibition of visible growth incubated for 16 to 18 hrs by CLSI method; assay type: functional; conditions: time 16-18 hrs, read-out: MIC100
# [14] = test system: Staphylococcus aureus; assay: Antibacterial activity against methicillin-resistant Staphylococcus aureus clinical isolate M-17 assessed as inhibition of visible growth incubated for 16 to 18 hrs by CLSI method; assay type: functional; conditions: time 16-18 hrs, read-out: MIC100
# [15] = test system: Staphylococcus aureus; assay: Antibacterial activity against methicillin-resistant Staphylococcus aureus clinical isolate M-11 assessed as inhibition of visible growth incubated for 16 to 18 hrs by CLSI method; assay type: functional; conditions: time 16-18 hrs, read-out: MIC100
# [16] = test system: Salmonella enterica; assay: Antibacterial activity against Salmonella enterica 8389 assessed as inhibition of visible growth incubated for 16 to 18 hrs by CLSI method; assay type: functional; conditions: time 16-18 hrs, read-out: MIC100
# [17] = Hemolytic activity in sheep RBC assessed as hemolysis incubated for 1 hr; assay type: ADME, cell-based, Ovis aries, Erythrocyte; conditions: sheep red blood cells (erythrocytes)
# [18] = test system: Staphylococcus aureus; assay: Antibacterial activity against methicillin-resistant Staphylococcus aureus clinical isolate M-14 assessed as inhibition of visible growth incubated for 16 to 18 hrs by CLSI method; assay type: functional; conditions: time 16-18 hrs, read-out: MIC100
# [19] = test system: Salmonella enterica; assay: Antibacterial activity against Salmonella enterica 349812 assessed as inhibition of visible growth incubated for 16 to 18 hrs by CLSI method; assay type: functional; conditions: time 16-18 hrs, read-out: MIC100
# [20] = test system: Enterococcus faecalis; assay: Antibacterial activity against Enterococcus faecalis ATCC29212 assessed as inhibition of visible growth incubated for 16 to 18 hrs by CLSI method; assay type: functional; conditions: time 16-18 hrs, read-out: MIC100
SMILES,MIC [1],MIC [2],MIC [3],MIC [4],MIC [5],selectivity ratio [6],MIC [7],MIC [8],MIC [9],MIC [10],MIC [11],MIC [12],MIC [13],MIC [14],MIC [15],MIC [16],HC50 at 1 h [17],MIC [18],MIC [19],MIC [20]
C=CCc1ccc(O)c(-c2cc(CC=C)ccc2OCCC[N+](C)(C)CC(=O)NCCCCC)c1.[Br-],2 µg/mL,2 µg/mL,8 µg/mL,16 µg/mL,1 µg/mL,339,1 µg/mL,2 µg/mL,2 µg/mL,2 µg/mL,2 µg/mL,4 µg/mL,2 µg/mL,2 µg/mL,8 µg/mL,16 µg/mL,678 µg/mL,2 µg/mL,32 µg/mL,4 µg/mL
C=CCc1ccc(OCC[N+](C)(C)CC(=O)NCCCCCC)c(-c2ccc(OCC[N+](C)(C)CC(=O)NCCCCCC)c(CC=C)c2)c1.[Br-].[Br-],8 µg/mL,8 µg/mL,32 µg/mL,32 µg/mL,4 µg/mL,117,8 µg/mL,8 µg/mL,8 µg/mL,16 µg/mL,8 µg/mL,8 µg/mL,4 µg/mL,4 µg/mL,8 µg/mL,32 µg/mL,934 µg/mL,8 µg/mL,32 µg/mL,4 µg/mL
C[C@H]1COc2c(N3CCN(C)CC3)c(F)cc3c(=O)c(C(=O)O)cn1c23.C[C@H]1COc2c(N3CCN(C)CC3)c(F)cc3c(=O)c(C(=O)O)cn1c23.O [LEVOFLOXACIN],1 µg/mL,0.5 µg/mL,–,0.5 µg/mL,0.5 µg/mL,–,0.25 µg/mL,0.5 µg/mL,1 µg/mL,1 µg/mL,1 µg/mL,5 µg/mL,1 µg/mL,5 µg/mL,1 µg/mL,0.25 µg/mL,–,1 µg/mL,0.25 µg/mL,0.25 µg/mL
C=CCc1ccc(OCCCC[N+](C)(C)CC(=O)N(CCCC)CCCC)c(-c2ccc(OCCCC[N+](C)(C)CC(=O)N(CCCC)CCCC)c(CC=C)c2)c1.[Br-].[Br-],8 µg/mL,8 µg/mL,8 µg/mL,16 µg/mL,2 µg/mL,316,4 µg/mL,2 µg/mL,8 µg/mL,16 µg/mL,4 µg/mL,8 µg/mL,8 µg/mL,8 µg/mL,4 µg/mL,16 µg/mL,633 µg/mL,8 µg/mL,8 µg/mL,4 µg/mL
C=CCc1ccc(O)c(-c2cc(CC=C)ccc2OCCC[N+](C)(C)CC(=O)N(CCCC)CCCC)c1.[Br-],2 µg/mL,2 µg/mL,8 µg/mL,8 µg/mL,0.5 µg/mL,382,0.5 µg/mL,2 µg/mL,4 µg/mL,2 µg/mL,1 µg/mL,2 µg/mL,2 µg/mL,2 µg/mL,4 µg/mL,16 µg/mL,764 µg/mL,4 µg/mL,8 µg/mL,2 µg/mL
C=CCc1ccc(O)c(-c2cc(CC=C)ccc2OCCCC[N+](C)(C)CC(=O)NCCCCC)c1.[Br-],4 µg/mL,4 µg/mL,8 µg/mL,32 µg/mL,2 µg/mL,322,4 µg/mL,2 µg/mL,4 µg/mL,4 µg/mL,4 µg/mL,4 µg/mL,4 µg/mL,4 µg/mL,4 µg/mL,32 µg/mL,643 µg/mL,4 µg/mL,32 µg/mL,8 µg/mL
C=CCc1ccc(O)c(-c2cc(CC=C)ccc2OCC[N+](C)(C)CC(=O)NCCCCC)c1.[Br-],8 µg/mL,8 µg/mL,32 µg/mL,64 µg/mL,4 µg/mL,80.7,4 µg/mL,8 µg/mL,16 µg/mL,8 µg/mL,8 µg/mL,8 µg/mL,8 µg/mL,8 µg/mL,16 µg/mL,64 µg/mL,645 µg/mL,8 µg/mL,64 µg/mL,16 µg/mL
C=CCc1ccc(O)c(-c2ccc(O)c(CC=C)c2)c1 [HONOKIOL],–,–,> 128 µg/mL,> 128 µg/mL,32 µg/mL,–,32 µg/mL,64 µg/mL,–,–,–,–,–,–,–,> 128 µg/mL,534 µg/mL,–,> 128 µg/mL,64 µg/mL
CN(C)c1cc(NC(=O)CNC(C)(C)C)c(O)c2c1C[C@H]1C[C@H]3[C@H](N(C)C)C(O)=C(C(N)=O)C(=O)[C@@]3(O)C(O)=C1C2=O [TIGECYCLINE],0.5 µg/mL,0.25 µg/mL,–,–,–,–,–,–,1 µg/mL,0.25 µg/mL,0.5 µg/mL,1 µg/mL,0.5 µg/mL,0.5 µg/mL,0.5 µg/mL,–,–,1 µg/mL,–,–
C=CCc1ccc(O)c(-c2cc(CC=C)ccc2OCCCC[N+](C)(C)CC(=O)NCCCC)c1.[Br-],1 µg/mL,1 µg/mL,8 µg/mL,8 µg/mL,0.5 µg/mL,277,0.5 µg/mL,2 µg/mL,2 µg/mL,1 µg/mL,1 µg/mL,2 µg/mL,1 µg/mL,2 µg/mL,4 µg/mL,16 µg/mL,555 µg/mL,2 µg/mL,16 µg/mL,2 µg/mL
C=CCc1ccc(OCCCC[N+](C)(C)CC(=O)NCCCC)c(-c2ccc(OCCCC[N+](C)(C)CC(=O)NCCCC)c(CC=C)c2)c1.[Br-].[Br-],4 µg/mL,4 µg/mL,8 µg/mL,8 µg/mL,2 µg/mL,266,4 µg/mL,2 µg/mL,2 µg/mL,4 µg/mL,4 µg/mL,2 µg/mL,2 µg/mL,4 µg/mL,2 µg/mL,16 µg/mL,531 µg/mL,2 µg/mL,8 µg/mL,1 µg/mL
C=CCc1ccc(OCCC[N+](C)(C)CC(=O)NCCCCCC)c(-c2ccc(OCCC[N+](C)(C)CC(=O)NCCCCCC)c(CC=C)c2)c1.[Br-].[Br-],4 µg/mL,4 µg/mL,8 µg/mL,8 µg/mL,2 µg/mL,269,2 µg/mL,4 µg/mL,4 µg/mL,4 µg/mL,4 µg/mL,4 µg/mL,4 µg/mL,4 µg/mL,4 µg/mL,2 µg/mL,1080 µg/mL,4 µg/mL,4 µg/mL,4 µg/mL
C=CCc1ccc(OCCCC[N+](C)(C)CC(=O)NCC)c(-c2ccc(OCCCC[N+](C)(C)CC(=O)NCC)c(CC=C)c2)c1.[Br-].[Br-],8 µg/mL,8 µg/mL,4 µg/mL,8 µg/mL,4 µg/mL,442,8 µg/mL,2 µg/mL,8 µg/mL,16 µg/mL,8 µg/mL,8 µg/mL,8 µg/mL,8 µg/mL,16 µg/mL,32 µg/mL,883 µg/mL,8 µg/mL,8 µg/mL,2 µg/mL
CN[C@H](CC(C)C)C(=O)N[C@H]1C(=O)N[C@@H](CC(N)=O)C(=O)N[C@H]2C(=O)N[C@H]3C(=O)N[C@H](C(=O)N[C@H](C(=O)O)c4cc(O)cc(O)c4-c4cc3ccc4O)[C@H](O)c3ccc(c(Cl)c3)Oc3cc2cc(c3O[C@@H]2O[C@H](CO)[C@@H](O)[C@H](O)[C@H]2O[C@H]2C[C@](C)(N)[C@H](O)[C@H](C)O2)Oc2ccc(cc2Cl)[C@H]1O [VANCOMYCIN],–,–,–,–,0.25 µg/mL,–,0.5 µg/mL,–,–,–,–,–,–,–,–,–,–,–,–,2 µg/mL
C=CCc1ccc(O)c(-c2cc(CC=C)ccc2O)c1 [MAGNOLOL],–,–,> 128 µg/mL,> 128 µg/mL,16 µg/mL,–,16 µg/mL,32 µg/mL,–,–,–,–,–,–,–,> 128 µg/mL,463 µg/mL,–,> 128 µg/mL,64 µg/mL
